# According to patent US12365692B2, “6-hydroxy-8-oxatricyclo[3.2.1.02,4]octane-2-carboxamide derivatives for inducing chondrogenesis for treating joint damage” (NOVARTIS AG, priority 2018, dated 2025):
# Like-named read-outs stand apart in the source and are kept apart here.
# Tested on: ALP in NHAC (normal human articular chondrocytes)
# Assay: Alkaline Phosphatase (ALP) activity assay: ALP staining and quantitation in NHACs (prevention of chondrocyte hypertrophy)
# Assay type: cell-based
# Details: human IL-1 beta 10 ng/mL, 12 days; for IC50: Fast Blue RR staining, high content imaging
# How it was run: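 NHACs were plated with test compound in DMEM containing 10% FBS, and human IL-1 beta was added 5 h later at 10 ng/mL final. Cultures were kept 12 days at 37° C, 5% CO2. Cells were then fixed, ALP-stained with Fast Blue RR/Naphthol AS-MX, and hypertrophic cells were imaged and quantified by high-content imaging.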
# [1] = Chondrocyte, 288 h, read-out: ALP in NHAC (% Efficacy)
Compound,"IC50 (Chondrocyte, 288 h) [nM]",Emax [1] [%],Emax,IC50 [nM]
"O=C(Nc1cc(C(F)(F)F)ccc1F)[C@]12C[C@@]1(c1cccc(C(F)(F)F)c1)[C@H]1O[C@@H]2C[C@@H]1O (racemic) [Example 81, rac-(1R,2R,4S,5R,6S)—N-(2-fluoro-5-(trifluoromethyl)phenyl)-6-hydroxy-4-(3-(trifluoromethyl)phenyl)-8-oxatricyclo[3.2.1.02,4]octane-2-carboxamide]",> 30000,47,,
"O=C(Nc1cc(C(F)(F)F)ccn1)[C@]12C[C@@]1(c1cccc(C(F)(F)F)c1)[C@H]1O[C@@H]2C[C@@H]1O (racemic) [Example 82, rac-(1R,2R,4S,5R,6S)-6-hydroxy-4-(3-(trifluoromethyl)phenyl)-N-(4-(trifluoromethyl)pyridin-2-yl)-8-oxatricyclo[3.2.1.02,4]octane-2-carboxamide]",> 30000,36,,
"(1R,2R,4S,5R,6S)—N-(2-cyano-5-(trifluoromethyl)phenyl)-6-hydroxy-4-(2-methoxypyridin-4-yl)-8-oxatricyclo[3.2.1.02,4]octane-2-carboxamide or (1S,2S,4R,5S,6R)—N-(2-cyano-5-(trifluoromethyl)phenyl)-6-hydroxy-4-(2-methoxypyridin-4-yl)-8-oxatricyclo[3.2.1.02,4]octane-2-carboxamide [Example 39a]",,,(90) %,290
"(1R,2R,4S,5R,6S)—N-(2-cyano-5-(trifluoromethyl)phenyl)-6-hydroxy-4-(2-methoxypyridin-4-yl)-8-oxatricyclo[3.2.1.02,4]octane-2-carboxamide or (1S,2S,4R,5S,6R)—N-(2-cyano-5-(trifluoromethyl)phenyl)-6-hydroxy-4-(2-methoxypyridin-4-yl)-8-oxatricyclo[3.2.1.02,4]octane-2-carboxamide [Example 39b]",,,(97) %,250
